This is an account of results in PMC6120666 (The EMBO Journal, 2018).

The target of assay [1] is T1, proteins of U2OS cell lysate (Homo sapiens, UniProt O14818).
T1 construct: Proteins enriched by c-ponatinib from U2OS cell lysate; endogenous in cells; host or cells: U2OS cell lysate
Briefly: Drug affinity chromatography with c-ponatinib and LC-MS/MS (ponatinib interactome). Type of assay: binding. As to conditions: PSMA7;PSMA8, Proteasome subunit alpha type-7. A digest of the protocol:
(§1)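 U2OS cell lysate in NP-40 lysis buffer (2 mg protein per pulldown) was incubated with amine-derivatized NHS beads for 2 h at 4 °C. Bound proteins were washed, eluted with 100 mM formic acid, reduced, alkylated and trypsin-digested, then identified by nano-UPLC–MS/MS on Orbitrap instruments with a 60 min gradient.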

The target of assay [2] is T2, proteins of U2OS cell lysate (Homo sapiens, UniProt P05141).
T2 construct: Proteins enriched by c-ponatinib from U2OS cell lysate; endogenous in cells; host or cells: U2OS cell lysate
Described as above. Type of assay: binding. As to conditions: SLC25A5;SLC25A6;SLC25A4, ADP/ATP translocase 2. Put shortly:
as §1

The target of assay [3] is T3, proteins of U2OS cell lysate (Homo sapiens, UniProt P06748).
T3 construct: Proteins enriched by c-ponatinib from U2OS cell lysate; endogenous in cells; host or cells: U2OS cell lysate
T3 sequence (P06748 whole entry): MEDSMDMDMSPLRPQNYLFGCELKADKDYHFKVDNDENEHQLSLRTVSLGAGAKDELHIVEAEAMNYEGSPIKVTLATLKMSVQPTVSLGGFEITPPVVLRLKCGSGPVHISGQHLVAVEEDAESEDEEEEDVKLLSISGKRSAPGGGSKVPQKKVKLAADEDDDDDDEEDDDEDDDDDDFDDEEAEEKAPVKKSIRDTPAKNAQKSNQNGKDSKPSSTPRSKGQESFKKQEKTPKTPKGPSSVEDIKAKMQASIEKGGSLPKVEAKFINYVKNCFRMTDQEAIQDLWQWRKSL
The description is as above. The format is binding. As to conditions: NPM1, Nucleophosmin. Put shortly: as §1

In assay [4] the target is T4, proteins of U2OS cell lysate (Homo sapiens, UniProt P0DMV9).
T4 construct: Proteins enriched by c-ponatinib from U2OS cell lysate; endogenous in cells; host or cells: U2OS cell lysate
T4 sequence (P0DMV9 whole entry): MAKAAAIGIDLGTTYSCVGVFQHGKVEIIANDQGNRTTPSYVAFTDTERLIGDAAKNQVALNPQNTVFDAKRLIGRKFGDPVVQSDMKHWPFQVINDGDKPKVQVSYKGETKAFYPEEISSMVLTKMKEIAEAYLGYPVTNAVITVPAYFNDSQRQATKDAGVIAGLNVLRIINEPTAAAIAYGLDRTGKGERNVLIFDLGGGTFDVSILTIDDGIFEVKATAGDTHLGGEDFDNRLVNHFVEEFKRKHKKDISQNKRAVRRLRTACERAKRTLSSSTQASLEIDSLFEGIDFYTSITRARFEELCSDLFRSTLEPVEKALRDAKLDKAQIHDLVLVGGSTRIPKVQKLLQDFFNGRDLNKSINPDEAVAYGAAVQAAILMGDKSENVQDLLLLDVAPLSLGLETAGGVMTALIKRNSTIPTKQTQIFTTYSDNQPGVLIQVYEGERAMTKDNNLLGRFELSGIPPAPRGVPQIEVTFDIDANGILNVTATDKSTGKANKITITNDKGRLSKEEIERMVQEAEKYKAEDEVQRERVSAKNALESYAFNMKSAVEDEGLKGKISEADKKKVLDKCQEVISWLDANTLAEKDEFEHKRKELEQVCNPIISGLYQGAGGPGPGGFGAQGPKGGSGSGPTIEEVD
The assay is described as above. Type of assay: binding. The note with it: HSPA1B, Heat shock 70 kDa protein 1B. Put shortly:
as §1

Assay [5] concerns the target T5, proteins of U2OS cell lysate (Homo sapiens, UniProt P16083).
T5 construct: Proteins enriched by c-ponatinib from U2OS cell lysate; endogenous in cells; host or cells: U2OS cell lysate
Described as above. Type of assay: binding. As to conditions: NQO2, Ribosyldihydronicotinamide dehydrogenase [quinone]. A digest of the protocol: as §1

Assay [6] deals with T6, proteins of U2OS cell lysate (Homo sapiens, UniProt P35659).
T6 construct: Proteins enriched by c-ponatinib from U2OS cell lysate; endogenous in cells; host or cells: U2OS cell lysate
T6 sequence (P35659 whole entry): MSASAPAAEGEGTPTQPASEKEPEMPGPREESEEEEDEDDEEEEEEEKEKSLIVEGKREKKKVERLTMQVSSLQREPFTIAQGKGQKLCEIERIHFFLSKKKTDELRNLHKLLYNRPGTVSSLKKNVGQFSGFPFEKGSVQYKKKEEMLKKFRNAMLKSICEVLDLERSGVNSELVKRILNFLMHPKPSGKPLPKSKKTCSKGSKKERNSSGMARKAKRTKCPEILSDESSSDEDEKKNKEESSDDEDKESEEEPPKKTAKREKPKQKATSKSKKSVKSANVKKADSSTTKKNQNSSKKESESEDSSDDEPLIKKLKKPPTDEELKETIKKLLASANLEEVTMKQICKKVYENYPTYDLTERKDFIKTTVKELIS
The description is as above. The format is binding. As to conditions: DEK, Protein DEK. A digest of the protocol:
as §1

Assay [7] concerns the target T7, proteins of U2OS cell lysate (Homo sapiens, UniProt P42684).
T7 construct: Proteins enriched by c-ponatinib from U2OS cell lysate; endogenous in cells; host or cells: U2OS cell lysate
Described as above. The format is binding. As to conditions: ABL2, Abelson tyrosine-protein kinase 2. A digest of the protocol:
as §1

Assay [8] addresses T8, proteins of U2OS cell lysate (Homo sapiens, UniProt P49368).
T8 construct: Proteins enriched by c-ponatinib from U2OS cell lysate; endogenous in cells; host or cells: U2OS cell lysate
The description is as above. The format is binding. The note with it: CCT3, T-complex protein 1 subunit gamma. Put shortly: as §1

Assay [9] has as its target T9, proteins of U2OS cell lysate (Homo sapiens, UniProt P62241).
T9 construct: Proteins enriched by c-ponatinib from U2OS cell lysate; endogenous in cells; host or cells: U2OS cell lysate
The description is as above. Type of assay: binding. As to conditions: RPS8, 40S ribosomal protein S8. Put shortly: as §1

Assay [10] has as its target T10, proteins of U2OS cell lysate (Homo sapiens, UniProt Q13011).
T10 construct: Proteins enriched by c-ponatinib from U2OS cell lysate; endogenous in cells; host or cells: U2OS cell lysate
Described as above. The format is binding. As to conditions: ECH1, Delta(3,5)-Delta(2,4)-dienoyl-CoA isomerase, mitochondrial. A digest of the protocol: as §1

The target of assay [11] is T11, proteins of U2OS cell lysate (Homo sapiens, UniProt Q14203).
T11 construct: Proteins enriched by c-ponatinib from U2OS cell lysate; endogenous in cells; host or cells: U2OS cell lysate
T11 sequence (Q14203 whole entry): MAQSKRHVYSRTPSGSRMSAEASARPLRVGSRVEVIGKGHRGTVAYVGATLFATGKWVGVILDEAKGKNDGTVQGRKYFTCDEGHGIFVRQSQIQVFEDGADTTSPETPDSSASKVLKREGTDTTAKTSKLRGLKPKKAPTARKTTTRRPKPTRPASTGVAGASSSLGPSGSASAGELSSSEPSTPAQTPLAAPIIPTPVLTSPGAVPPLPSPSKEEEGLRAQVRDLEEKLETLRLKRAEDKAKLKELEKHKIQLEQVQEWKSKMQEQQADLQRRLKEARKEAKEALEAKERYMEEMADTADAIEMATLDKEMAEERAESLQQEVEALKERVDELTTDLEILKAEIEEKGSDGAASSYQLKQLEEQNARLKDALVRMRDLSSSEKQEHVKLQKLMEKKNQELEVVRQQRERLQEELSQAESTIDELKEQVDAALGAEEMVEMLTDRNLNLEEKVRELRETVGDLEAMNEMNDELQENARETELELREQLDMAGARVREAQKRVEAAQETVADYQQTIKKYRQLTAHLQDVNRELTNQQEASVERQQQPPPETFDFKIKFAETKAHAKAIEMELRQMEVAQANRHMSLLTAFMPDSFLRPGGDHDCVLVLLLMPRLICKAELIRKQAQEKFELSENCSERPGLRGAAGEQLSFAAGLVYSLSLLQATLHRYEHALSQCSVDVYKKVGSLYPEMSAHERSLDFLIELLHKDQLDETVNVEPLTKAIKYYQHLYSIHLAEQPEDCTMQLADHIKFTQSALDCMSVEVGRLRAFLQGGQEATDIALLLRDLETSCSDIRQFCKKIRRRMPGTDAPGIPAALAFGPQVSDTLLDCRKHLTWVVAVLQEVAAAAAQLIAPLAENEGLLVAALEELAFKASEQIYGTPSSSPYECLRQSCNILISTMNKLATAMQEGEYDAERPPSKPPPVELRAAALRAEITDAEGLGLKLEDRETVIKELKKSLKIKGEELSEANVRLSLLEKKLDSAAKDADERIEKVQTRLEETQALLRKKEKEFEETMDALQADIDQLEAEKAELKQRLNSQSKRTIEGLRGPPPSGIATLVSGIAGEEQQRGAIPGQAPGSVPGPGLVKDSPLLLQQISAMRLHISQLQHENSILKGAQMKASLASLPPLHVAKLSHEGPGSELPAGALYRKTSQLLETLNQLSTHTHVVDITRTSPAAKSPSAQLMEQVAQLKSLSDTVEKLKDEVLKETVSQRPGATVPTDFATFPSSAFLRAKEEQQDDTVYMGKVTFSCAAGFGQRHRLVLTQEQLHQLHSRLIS
The assay is described as above. Type of assay: binding. The note with it: DCTN1, Dynactin subunit 1. A digest of the protocol:
as §1

The test system of another assay is C57Bl6/J mice. On the set-up: method as in Nachbur et al, 2015. The note with it: ref Nachbur et al, 2015; cited from earlier work.
Assay [12] addresses T12, proteins of U2OS cell lysate (Homo sapiens, UniProt P46782).
T12 construct: Proteins enriched by c-ponatinib from U2OS cell lysate; endogenous in cells; host or cells: U2OS cell lysate
Briefly: Drug affinity chromatography with c-ponatinib and LC-MS/MS (ponatinib interactome). As to conditions: captured protein RPS5, Rank 160. Type of assay: binding. Put shortly:
as §1

Assay [13] addresses T13, proteins of U2OS cell lysate (Homo sapiens, UniProt P55884).
T13 construct: Proteins enriched by c-ponatinib from U2OS cell lysate; endogenous in cells; host or cells: U2OS cell lysate
The assay is described as above. Type of assay: binding. As to conditions: captured protein EIF3B, Rank 123. Put shortly:
as §1

Each structure is given as a SMILES string.

T10 sequence (Q13011 34-328): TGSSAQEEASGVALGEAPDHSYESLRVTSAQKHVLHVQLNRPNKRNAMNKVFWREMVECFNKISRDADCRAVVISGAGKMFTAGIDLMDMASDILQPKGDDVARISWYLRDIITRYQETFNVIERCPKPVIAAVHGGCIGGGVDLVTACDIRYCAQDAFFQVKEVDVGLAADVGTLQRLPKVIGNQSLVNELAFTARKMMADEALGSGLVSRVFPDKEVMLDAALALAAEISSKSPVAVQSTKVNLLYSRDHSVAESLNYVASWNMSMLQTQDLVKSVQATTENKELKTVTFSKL
T8 sequence (P49368 whole entry): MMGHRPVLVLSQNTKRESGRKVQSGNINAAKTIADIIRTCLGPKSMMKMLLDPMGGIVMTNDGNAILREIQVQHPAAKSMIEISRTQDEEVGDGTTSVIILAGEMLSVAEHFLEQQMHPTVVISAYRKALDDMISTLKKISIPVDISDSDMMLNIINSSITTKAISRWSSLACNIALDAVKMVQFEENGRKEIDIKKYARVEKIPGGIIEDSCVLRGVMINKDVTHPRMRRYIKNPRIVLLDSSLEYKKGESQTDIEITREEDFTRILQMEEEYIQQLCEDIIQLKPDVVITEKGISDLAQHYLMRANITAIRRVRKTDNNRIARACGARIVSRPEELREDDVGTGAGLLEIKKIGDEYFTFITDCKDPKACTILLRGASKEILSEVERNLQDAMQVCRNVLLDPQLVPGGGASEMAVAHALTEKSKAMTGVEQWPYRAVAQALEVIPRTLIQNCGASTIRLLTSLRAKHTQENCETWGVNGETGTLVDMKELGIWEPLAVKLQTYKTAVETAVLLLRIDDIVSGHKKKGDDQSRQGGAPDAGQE
T1 sequence (O14818 whole entry): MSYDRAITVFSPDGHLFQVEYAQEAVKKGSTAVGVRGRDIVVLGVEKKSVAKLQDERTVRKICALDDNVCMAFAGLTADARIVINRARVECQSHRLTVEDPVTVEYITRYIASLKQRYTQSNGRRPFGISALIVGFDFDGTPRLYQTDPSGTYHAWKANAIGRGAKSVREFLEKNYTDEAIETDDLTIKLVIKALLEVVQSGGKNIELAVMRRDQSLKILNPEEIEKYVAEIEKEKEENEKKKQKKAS
T5 sequence (P16083 whole entry): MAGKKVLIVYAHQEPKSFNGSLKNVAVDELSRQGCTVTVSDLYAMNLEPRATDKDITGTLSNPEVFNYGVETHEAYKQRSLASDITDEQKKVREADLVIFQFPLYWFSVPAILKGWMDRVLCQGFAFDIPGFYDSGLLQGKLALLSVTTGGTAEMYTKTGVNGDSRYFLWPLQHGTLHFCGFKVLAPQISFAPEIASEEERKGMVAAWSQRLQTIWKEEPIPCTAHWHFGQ
T13 sequence (P55884 whole entry): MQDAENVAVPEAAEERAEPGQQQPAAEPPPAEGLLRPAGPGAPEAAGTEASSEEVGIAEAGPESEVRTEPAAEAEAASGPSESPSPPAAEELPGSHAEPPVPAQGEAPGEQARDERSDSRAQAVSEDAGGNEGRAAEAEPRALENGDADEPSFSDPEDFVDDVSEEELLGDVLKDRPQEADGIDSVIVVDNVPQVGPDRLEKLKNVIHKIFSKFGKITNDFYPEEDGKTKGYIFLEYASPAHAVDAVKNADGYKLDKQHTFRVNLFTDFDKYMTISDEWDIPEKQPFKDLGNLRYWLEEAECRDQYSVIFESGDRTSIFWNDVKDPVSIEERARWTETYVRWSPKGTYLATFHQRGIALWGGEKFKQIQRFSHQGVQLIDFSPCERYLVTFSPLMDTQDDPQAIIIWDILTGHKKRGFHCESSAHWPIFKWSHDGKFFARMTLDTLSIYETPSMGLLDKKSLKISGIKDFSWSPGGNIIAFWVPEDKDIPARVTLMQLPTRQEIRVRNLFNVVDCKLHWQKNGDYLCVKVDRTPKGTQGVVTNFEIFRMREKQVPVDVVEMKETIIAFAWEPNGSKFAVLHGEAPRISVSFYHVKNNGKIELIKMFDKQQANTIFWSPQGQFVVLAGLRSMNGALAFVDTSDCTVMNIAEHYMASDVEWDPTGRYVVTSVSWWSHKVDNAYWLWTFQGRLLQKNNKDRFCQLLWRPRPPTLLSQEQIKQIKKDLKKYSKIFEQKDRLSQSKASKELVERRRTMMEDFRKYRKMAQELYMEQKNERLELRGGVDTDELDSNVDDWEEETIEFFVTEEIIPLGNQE

Turning to `Cc1ccc(C(=O)Nc2ccc(CN3CCN(C)CC3)c(C(F)(F)F)c2)cc1C#Cc1cnc2cccnn12` [PON], the “Average LFQ PON_WT” value is 22.0977 in assay [1]; 25.3771 in assay [2]; 21.1903 in assay [3]; 24.1054 in [4]; 24.6177 in assay [5]; 19.6049 in assay [6]. For the same molecule, the “Average LFQ PON_WT” value turned out to be 26.1742 in assay [7]; 23.8873 in [8]; 19.8524 in assay [9]; 25.3624 in [10]; 21.0359 in [11].

As for `Cc1ccc(-c2nn(C(C)(C)CNC(=O)c3ccncc3)c3ncnc(N)c23)cc1` [WEHI‐345, reference compound], the “increase in serum levels of TNF in mice challenged with MDP” value in the assay with C57Bl6/J mice is on record as “only partially inhibited”.

`Cc1ccc(C(=O)Nc2ccc(CN3CCN(CCCN)CC3)c(C(F)(F)F)c2)cc1C#Cc1cnc2cccnn12` [c-ponatinib, reference compound]: the “Average LFQ intensity” value came out at 22.4465 in assay [12] and 23.0265 in assay [13].
